Reference: patent US10995054B2, “Hyperpolarized [3-13C]acetoacetate and methods of using the same” (Agency for Science, Technology and Research, priority 2016, dated 2021)
“And” between values parts separate entries of the source, which are not always exact repeats. Equal entries are not always repeated. Where two headings read alike, the source gives them in different places.

Experiments:
[1] = Hyperpolarization (DNP) and lifetime of [3-13C]acetoacetate; assay type: physicochemical
Description: Approximately 51 mg of [3-^13C]acetoacetate, doped with 5.5 mg of trityl-radical (OX063, GE Healthcare), 250 μl of gadoterate meglumine (1.2 mmol/L, Dotarem®, Guerbet) and […] of DMSO (25% v/v) was prepared. Total volume is approximately […], resulting in 1.23 mol/L of [3-^13C]acetoacetate, 9.3 mmol/L of OX063, and 0.80 mmol/L of gadolinium. […] of the sample was hyperpolarized in a polarizer (Hypersense, Oxford Instruments, Oxford, UK), with 120 min of microwave irradiation at 94.097 GHz. The polarized sample was subsequently dissolved in 3 mL of pressurized and heated Tris-EDTA buffer with pH 7.80, to yield a solution of 80 mmol/L hyperpolarized [3-^13C]acetoacetate with a polarization of 10% and physiological temperature and pH.
The Examiner first determined whether the synthesized [3-^13C]acetoacetate can be hyperpolarized with sufficient polarization and lifetime for in vivo application. After 120 minutes of microwave irradiation at 1.2 K, the achieved polarization was 10.3±1.2% and T1 was 28.2±3.1 s. Besides the main substrate peak at 209.9 ppm and the natural abundance [1-^13C]acetoacetate at 174.6 ppm, an impurity peak was detected at 181.0 ppm. The amplitude of the impurity peak is 0.19±0.01% of the [3-^13C]acetoacetate signal. The impurity peak is very close to the expected [5-^13C]glutamate peak at 181.2 ppm (FIG. 2B). […]

[2] = test system: myocardial ketone body utilization; assay: Ketone body utilization in the heart in vivo measured by hyperpolarized 13C-MRS; design: species or system rat
Source text: Male non-obese diabetic Goto-Kakizaki (GK/MolTac; n=10) rats bred by Taconic (New York, US) were ordered from InVivos (Singapore). Male wild-type Wistar Han rats (n=10) were purchased from InVivos (Singapore) and served as controls. At 24 weeks of age, the animals underwent ^13C MRS and MRI to determine myocardial ketone body utilization and cardiac function. The animals were anaesthetized with isoflurane (3% for induction; 1.5-2% for maintenance) in medical air and oxygen at a flow rate of 2.0 L/min and 0.5 L/min, respectively. A catheter was inserted into the tail vein for intravenous administration of the hyperpolarized [3-^13C] acetoacetate inside the MRI scanner. At the end of the study, the animals were sacrificed. Blood and organs were collected and stored at −80° C. for biochemical analysis. All procedures involving animals were approved by A*STAR Institutional Animal Care and Use Committee (#171204)
Rats were positioned supine in a 9.4 T horizontal bore MR scanner interfaced to a Avance III HD console (Biospec, Bruker, Germany), with the heart directly above a dual-tuned (^1H/^13C) rat surface coil (diameter: 30 mm). Correct positioning was confirmed by the acquisition of an axial proton FLASH image (TE/TR, 8.0/100.0 ms; matrix size, 128×128; FOY, 40×40 mm; slice thickness, 1.5 mm; excitation flip angle, 30°). A cardiac-triggered and respiratory-gated shim was used to reduce the proton linewidth to approximately 160 Hz. Immediately before injection, a respiratory-gated ^13C MR pulse-acquire spectroscopy sequence was initiated. Then, hyperpolarized [3-^13C]acetoacetate (0.75-1.05 mL; 0.240 mmol/kg body weight) was injected via tail vein at a rate of 6 mL/min. Sixty individual heart spectra were acquired over 2 minutes after injection (TR, 2 s; excitation flip angle, 25°; sweep width, 8,000 Hz; acquired points, 4,096; frequency centered at 190 ppm from tetramethylsilane (TMS) standard).
Cardiac ^13C MR spectra were analyzed using the AMARES algorithm as implemented in the jMRUI software package (Naressi A, et al. Magn Reson Mater Physics, Biol Med. 2001; 12:141). Spectra were baseline and DC offset-corrected based on the last half of acquired points. To quantify myocardial ketone metabolism, spectra were summed over the first 30 seconds upon acetoacetate arrival. Peaks corresponding to [3-^13C]acetoacetate and its metabolic derivatives [5-^13C]glutamate, [1-^13C]acetoacetate, and [1-^13C]acetylcarnitine were fitted with prior knowledge assuming a Lorentzian line shape, peak frequencies, relative phases, and linewidths. The fitted amplitudes were then normalized to the amplitude of [3-^13C]acetoacetate.

[3] = 0.240 mmol/kg i.v.
insulin secretion = settings: infusion in man, concentration higher than 2 mM; cited from earlier work
[4] = molecular target: T1, sodium/glucose co-transporter-2 (SGLT-2) (Homo sapiens, UniProt P31639); settings: cited from earlier work
T1 construct: host or cells: diabetic patients (in vivo)
T1 sequence (P31639 1-672): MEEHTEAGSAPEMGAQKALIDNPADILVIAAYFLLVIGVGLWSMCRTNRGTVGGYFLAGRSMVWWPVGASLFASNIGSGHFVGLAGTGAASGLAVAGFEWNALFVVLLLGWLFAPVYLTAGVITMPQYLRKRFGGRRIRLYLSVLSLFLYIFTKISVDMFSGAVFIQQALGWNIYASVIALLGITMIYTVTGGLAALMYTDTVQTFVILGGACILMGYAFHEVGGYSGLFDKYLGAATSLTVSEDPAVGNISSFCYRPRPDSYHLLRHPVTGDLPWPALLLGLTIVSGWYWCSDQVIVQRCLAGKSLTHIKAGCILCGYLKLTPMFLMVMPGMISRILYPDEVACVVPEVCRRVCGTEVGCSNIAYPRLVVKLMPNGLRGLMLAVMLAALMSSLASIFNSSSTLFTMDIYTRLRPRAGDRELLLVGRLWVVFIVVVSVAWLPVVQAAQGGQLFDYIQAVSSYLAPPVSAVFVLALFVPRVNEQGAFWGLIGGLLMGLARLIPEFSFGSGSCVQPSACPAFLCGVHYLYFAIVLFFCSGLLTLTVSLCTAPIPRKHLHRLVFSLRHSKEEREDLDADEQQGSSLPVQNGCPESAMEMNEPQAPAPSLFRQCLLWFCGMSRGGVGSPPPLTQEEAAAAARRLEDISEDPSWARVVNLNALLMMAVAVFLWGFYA

myocardial infarct = settings: fasted rats, ischemia-reperfusion; cited from earlier work
blood glucose = assay: Intraperitoneal insulin tolerance test (IpITT); assay type: in vivo, rat; settings: diabetic GK rats, insulin 1 U/kg i.p.
Description: The response to insulin glucose tolerance was determined by measuring the blood glucose levels before and at 60, 120, 180, 240, 300, and 360 minutes after intraperitoneal injection of insulin solution (1 U/kg body weight).

[5] = diabetic GK vs control rats, P=0.002
[6] = rat heart, i.v., 13C MRS time resolution 2 s

## C[13C](=O)CC(=O)[O-].[Li+] [[3-^13C]acetoacetate, lithium [3-^13C]acetoacetate]
[1]; 120 min microwave irradiation at 1.2 K, DNP
  achieved polarization: 10.3±1.2% and 10%
[1]; after 120 min microwave irradiation at 1.2 K
  T1: 28.2 ± 3.1 s
[2]; diabetic GK vs control rats, P=0.001
  production of [3-13C]β-OHB: lower in diabetic rats than in control rats
[2]; [5]
  production of [5-13C]glutamate: higher in the diabetic rats than in controls
  total production of [5-13C]glutamate+[1-13C]citrate: also higher in the diabetic rats compared with controls
[2]; diabetic GK vs control rats, normalized to [3-13C]acetoacetate, P=0.009
  total products of ketone body utilization ([5-13C]glutamate+[1-13C]acetylcarnitine): higher in the diabetic rats compared with controls
[2]; rat heart in vivo, i.v. injection
  [5-13C]glutamate metabolite signal, relative to [3-13C]acetoacetate signal: 2-4 % of the [3-13C]acetoacetate s
[2]; [6]
  appearance of 13C label in [1-13C]acetylcarnitine and [5-13C]glutamate after acetoacetate peaks: 2 to 4 s
  appearance of [1-13C]citrate: 8 to 10 s
[3]; GK rats
  calculated acetoacetate concentration in the blood after injection: 4.30 mM
[3]; control rats
  calculated acetoacetate concentration in the blood after injection: 4.27 mM

## CC(=O)CC(=O)O [acetoacetate]
Insulin secretion
  effect on insulin secretion: transient stimulatory effect on insulin secretion
  time after which the effect on insulin secretion abates: 10 to 15 min

## OC[C@H]1O[C@@H](c2ccc(Cl)c(Cc3ccc(O[C@H]4CCOC4)cc3)c2)[C@H](O)[C@@H](O)[C@@H]1O [empagliflozin]
[4]; after empagliflozin treatment
  plasma ketone body concentration: increase in plasma ketone body concentration
[4]; diabetic patients
  cardiovascular outcome: improved cardiovascular outcome

## CC(O)CC(=O)O (stereo not drawn) [β-OHB, β-hydroxybutyrate]
Myocardial infarct
  myocardial infarct size and apoptosis: reduced myocardial infarct size and apoptosis

## insulin: insulin solution injected intraperitoneally in the insulin tolerance test
Blood glucose
  blood glucose during insulin tolerance test: lowered blood glucose
